Data on 26 compounds can be found in patent US8030321B2, “Benzofuro- and benzothienopyrimidine modulators of the histamine H4 receptor” (Janssen Pharmaceutica, NV, priority 2006, dated 2011).

Structures can show the parent of a compound that is named as a salt. Where two headings read alike, the source gives them in different places.

This assay deals with T1, human histamine H4 receptor (Homo sapiens, UniProt Q9H3N8).
T1 construct: expressed in transfected cells; host or cells: SK-N-MC cells or COS7 cells, transiently transfected; cell membranes used
T1 sequence (Q9H3N8 whole entry): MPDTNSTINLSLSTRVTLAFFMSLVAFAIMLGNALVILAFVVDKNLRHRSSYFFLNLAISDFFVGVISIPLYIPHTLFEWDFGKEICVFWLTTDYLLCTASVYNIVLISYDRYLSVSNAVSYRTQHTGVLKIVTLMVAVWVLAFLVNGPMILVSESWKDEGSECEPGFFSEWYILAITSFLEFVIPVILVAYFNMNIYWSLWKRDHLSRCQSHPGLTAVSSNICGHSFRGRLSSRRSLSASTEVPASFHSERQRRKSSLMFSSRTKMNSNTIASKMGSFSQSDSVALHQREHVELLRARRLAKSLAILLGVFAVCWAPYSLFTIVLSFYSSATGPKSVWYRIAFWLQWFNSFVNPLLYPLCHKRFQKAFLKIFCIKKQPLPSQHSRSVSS
The experiment in a line: Binding Assay on Recombinant Human Histamine H4 Receptor. Here is the method: Binding Assay on Recombinant Human Histamine H4 Receptor
SK-N-MC cells or COS7 cells were transiently transfected with pH4R and grown in 150 cm^2 tissue culture dishes. Cells were washed with saline solution, scraped with a cell scraper and collected by centrifugation (1000 rpm, 5 min). Cell membranes were prepared by homogenization of the cell pellet in 20 mM Tris-HCl with a polytron tissue homogenizer for 10 sec at high speed. Homogenate was centrifuged at 1000 rpm for 5 min at 4° C. […] The final pellet was resuspended in 50 mM Tris-HCl. Cell membranes were incubated with ^3H-histamine (5-70 nM) in the presence or absence of excess histamine (10,000 nM). […] Membranes were harvested by rapid filtration over Whatman GF/C filters and washed 4 times with ice-cold 50 mM Tris HCl. Filters were then dried, mixed with scintillant and counted for radioactivity. SK-N-MC or COS7 cells expressing human histamine H4 receptor were used to measure the affinity of binding of other compounds and their ability to displace ^3H-ligand binding by incubating the above-described reaction in the presence of various concentrations of inhibitor or compound to be tested.

Setting [1] is: competition binding with 3H-histamine (5 nM), membranes of SK-N-MC or COS7 cells expressing human H4 receptor, Cheng-Prusoff, KD 5 nM, average of results obtained, read-out: Ki.

With `CC1CN(c2nc(N)nc3c2oc2ccc(Cl)cc23)CC(C)N1` (mixture of isomers) [Example 128, 8-Chloro-4-(3,5-dimethyl-piperazin-1-yl)-benzo[4,5]furo[3,2-d]pyrimidin-2-ylamine trifluoroacetic acid salt], the Ki under setting [1] was above 10000 nM.

Turning to `Nc1nc(N2CC[C@@H]3CNC[C@@H]32)c2oc3ccc(Cl)cc3c2n1` (relative stereo) [Example 95, (cis)-8-Chloro-4-(hexahydro-pyrrolo[3,4-b]pyrrol-1-yl)-benzo[4,5]furo[3,2-d]pyrimidin-2-ylamine trifluoroacetic acid salt], the Ki under setting [1] was 140 nM. Regarding `COc1ccc2oc3c(N4C[C@H]5CCCN[C@H]5C4)nc(N)nc3c2c1` (relative stereo) [Example 105, (cis)-8-Methoxy-4-(octahydro-pyrrolo[3,4-b]pyridin-6-yl)-benzo[4,5]furo[3,2-d]pyrimidin-2-ylamine trifluoroacetic acid salt], the Ki under setting [1] was determined as 14 nM. As for `COc1ccc2oc3c(N4C[C@H]5CCN[C@H]5C4)nc(N)nc3c2c1` (relative stereo) [Example 114, (cis)-4-(Hexahydro-pyrrolo[3,4-b]pyrrol-5-yl)-8-methoxy-benzo[4,5]furo[3,2-d]pyrimidin-2-ylamine trifluoroacetic acid salt], the Ki turned out to be 91 nM. On to `OCCNc1nc(N2C[C@H]3CCCN[C@H]3C2)c2oc3ccc(Cl)cc3c2n1` (relative stereo) [Example 117, (cis)-2-[8-Chloro-4-(octahydro-pyrrolo[3,4-b]pyridin-6-yl)-benzo[4,5]furo[3,2-d]pyrimidin-2-ylamino]-ethanol], for which the Ki under setting [1] stood at 930 nM.

For `CN1CCN(c2nc(N)nc3c2oc2ccc(Cl)cc23)CC1` [Example 1, 8-Chloro-4-(4-methyl-piperazin-1-yl)-benzo[4,5]furo[3,2-d]pyrimidin-2-ylamine], under setting [1], the Ki was determined as 0.14 nM. On to `Nc1nc(N2CC3CCCNC3C2)c2oc3c(Cl)cc(Cl)cc3c2n1` (centres unmarked) [Example 2, 6,8-Dichloro-4-(octahydro-pyrrolo[3,4-b]pyridin-6-yl)-benzo[4,5]furo[3,2-d]pyrimidin-2-ylamine trifluoroacetic acid salt], for which the Ki under setting [1] turned out to be 7.1 nM. On the same count and under the same terms, for `CC(C)N1CCCN(c2nc(N)nc3c2oc2ccc(Cl)cc23)CC1` [Example 3, 8-Chloro-4-(4-isopropyl-[1,4]diazepan-1-yl)-benzo[4,5]furo[3,2-d]pyrimidin-2-ylamine trifluoroacetic acid salt] the value was 76 nM. For the compound `Nc1nc(N2CCC(N)C2)c2oc3c(Cl)cc(Cl)cc3c2n1` (centres unmarked) [Example 4, 4-(3-Amino-pyrrolidin-1-yl)-6,8-dichloro-benzo[4,5]furo[3,2-d]pyrimidin-2-ylamine trifluoroacetic acid salt], the Ki under setting [1] was determined as 31 nM. As to `CN[C@@H]1CCN(c2nc(N)nc3c2oc2c(Cl)cc(Cl)cc23)C1` [Example 5, (R)-6,8-Dichloro-4-(3-methylamino-pyrrolidin-1-yl)-benzo[4,5]furo[3,2-d]pyrimidin-2-ylamine trifluoroacetic acid salt], the Ki under setting [1] stood at 1.9 nM. `CN[C@@H]1CCN(c2nc(N)nc3c2oc2ccccc23)C1` [Example 6, (R)-4-(3-Methylamino-pyrrolidin-1-yl)-benzo[4,5]furo[3,2-d]pyrimidin-2-ylamine citric acid salt]: under setting [1], the Ki is 3.4 nM. As to `Nc1nc(N2CCCNCC2)c2oc3ccc(Cl)cc3c2n1` [Example 7, 8-Chloro-4-[1,4]diazepan-1-yl-benzo[4,5]furo[3,2-d]pyrimidin-2-ylamine trifluoroacetic acid salt], under setting [1], the Ki amounted to 1.1 nM. On the same count and under the same terms, to `Nc1nc(N2CCN3CCCCC3C2)c2oc3ccc(Cl)cc3c2n1` (centres unmarked) [Example 8, 8-Chloro-4-(octahydro-pyrido[1,2-a]pyrazin-2-yl)-benzo[4,5]furo[3,2-d]pyrimidin-2-ylamine] belongs 16 nM. In the case of `Nc1nc(N2CC3CCCNC3C2)c2oc3ccc(Cl)cc3c2n1` (centres unmarked) [Example 9, 8-Chloro-4-(octahydro-pyrrolo[3,4-b]pyridin-6-yl)-benzo[4,5]furo[3,2-d]pyrimidin-2-ylamine], the Ki is 2.1 nM. In the case of `CN1CCCN(c2nc(N)nc3c2oc2ccc(Cl)cc23)CC1` [Example 10, 8-Chloro-4-(4-methyl-[1,4]diazepan-1-yl)-benzo[4,5]furo[3,2-d]pyrimidin-2-ylamine], the Ki under setting [1] is 0.74 nM. Regarding `Nc1nc(N2C[C@@H]3C[C@H]2CN3)c2oc3ccc(Cl)cc3c2n1` [Example 11, (S,S)-8-Chloro-4-(2,5-diaza-bicyclo[2.2.1]hept-2-yl)-benzo[4,5]furo[3,2-d]pyrimidin-2-ylamine], the Ki is 25 nM. In the case of `CNC1CCN(c2nc(N)nc3c2oc2ccc(Cl)cc23)C1` (centres unmarked) [Example 12, 8-Chloro-4-(3-methylamino-pyrrolidin-1-yl)-benzo[4,5]furo[3,2-d]pyrimidin-2-ylamine], the Ki under setting [1] stood at 0.86 nM. Consider `Nc1nc(N2CCC[C@H](N)C2)c2oc3ccc(Cl)cc3c2n1` [Example 13, (S)-4-(3-Amino-piperidin-1-yl)-8-chloro-benzo[4,5]furo[3,2-d]pyrimidin-2-ylamine trifluoroacetic acid salt], for which, under setting [1], the Ki came out at 9.6 nM. For `Nc1nc(N2CCNCC2)c2oc3ccc(Cl)cc3c2n1` [Example 14, 8-Chloro-4-piperazin-1-yl-benzo[4,5]furo[3,2-d]pyrimidin-2-ylamine trifluoroacetic acid salt], the Ki under setting [1] came out at 1.1 nM. For `CN(C)C1CCN(c2nc(N)nc3c2oc2ccc(Cl)cc23)C1` (centres unmarked) [Example 15, 8-Chloro-4-(3-dimethylamino-pyrrolidin-1-yl)-benzo[4,5]furo[3,2-d]pyrimidin-2-ylamine trifluoroacetic acid salt], the Ki under setting [1] was 6.2 nM. Take `Nc1nc(N2CCC(N)C2)c2oc3ccc(Cl)cc3c2n1` (centres unmarked) [Example 16, 4-(3-Amino-pyrrolidin-1-yl)-8-chloro-benzo[4,5]furo[3,2-d]pyrimidin-2-ylamine trifluoroacetic acid salt]: under setting [1], the Ki is 2.3 nM. Consider `CN[C@H]1CCN(c2nc(N)nc3c2oc2ccc(Cl)cc23)C1` [Example 17, (S)-8-Chloro-4-(3-methylamino-pyrrolidin-1-yl)-benzo[4,5]furo[3,2-d]pyrimidin-2-ylamine], for which the Ki under setting [1] was 2.1 nM. The same measure, in the same setting: for `CN[C@@H]1CCN(c2nc(N)nc3c2oc2ccc(Cl)cc23)C1` [Example 18, (R)-8-Chloro-4-(3-methylamino-pyrrolidin-1-yl)-benzo[4,5]furo[3,2-d]pyrimidin-2-ylamine] the value was 0.42 nM. Take `CN[C@@H]1CCN(c2nc(N)nc3c2oc2ccc(Br)cc23)C1` [Example 19, (R)-8-Bromo-4-(3-methylamino-pyrrolidin-1-yl)-benzo[4,5]furo[3,2-d]pyrimidin-2-ylamine trifluoroacetic acid salt]: the Ki under setting [1] was found to be 0.74 nM. In the case of `Nc1nc(N2CCN3CCCC3C2)c2oc3ccc(Br)cc3c2n1` (centres unmarked) [Example 20, 8-Bromo-4-(hexahydro-pyrrolo[1,2-a]pyrazin-2-yl)-benzo[4,5]furo[3,2-d]pyrimidin-2-ylamine trifluoroacetic acid salt], the Ki stood at 4.7 nM. With `Nc1nc(N2CCC(N)C2)c2oc3ccccc3c2n1` (centres unmarked) [Example 21, 4-(3-Amino-pyrrolidin-1-yl)-benzo[4,5]furo[3,2-d]pyrimidin-2-ylamine trifluoroacetic acid salt], under setting [1], the Ki is 5.7 nM.
